Measurements published in the NIST ThermoML archive (doi:10.1016/j.jct.2019.03.023).
Numbers after ± are expanded uncertainties.

Experiment: molar heat capacity at constant volume
Conditions: Fluid (supercritical or subcritical phases), Vacuum adiabatic calorimetry

CC(C)O [propan-2-ol]
Conditions	molar heat capacity at constant volume [J/K/mol]
509.12 K, Mass density=288.99 kg/m3	208.89 ± 6.2
509.12 K, Mass density=293.3 kg/m3	205.89 ± 6.2
509.12 K, Mass density=324.5 kg/m3	193.27 ± 5.8
509.13 K, Mass density=255.8 kg/m3	235.45 ± 7.1
509.21 K, Mass density=234.3 kg/m3	205.65 ± 6.2
509.21 K, Mass density=266.3 kg/m3	238.7 ± 7.2
509.21 K, Mass density=274 kg/m3	233.71 ± 7
509.21 K, Mass density=281.9 kg/m3	212.8 ± 6.4
509.22 K, Mass density=293.3 kg/m3	199.52 ± 6
509.31 K, Mass density=234.3 kg/m3	202.04 ± 6.1
509.31 K, Mass density=255.8 kg/m3	218.33 ± 6.6
509.31 K, Mass density=266.3 kg/m3	229.68 ± 6.9
509.31 K, Mass density=274 kg/m3	224.45 ± 6.7
509.31 K, Mass density=281.9 kg/m3	208.17 ± 6.2
509.31 K, Mass density=293.3 kg/m3	198.91 ± 5.9
509.35 K, Mass density=329.2 kg/m3	179.56 ± 5.4
509.4 K, Mass density=234.3 kg/m3	198.61 ± 5.9
509.4 K, Mass density=255.8 kg/m3	215.14 ± 6.5
509.4 K, Mass density=274 kg/m3	219.83 ± 6.6
509.41 K, Mass density=281.9 kg/m3	208.71 ± 6.2
509.41 K, Mass density=293.3 kg/m3	198.91 ± 5.9
509.45 K, Mass density=329.2 kg/m3	180.16 ± 5.4
509.49 K, Mass density=234.3 kg/m3	198.97 ± 5.9
509.49 K, Mass density=255.8 kg/m3	213.4 ± 6.4
509.49 K, Mass density=266.3 kg/m3	223.31 ± 6.7
509.49 K, Mass density=274 kg/m3	219.83 ± 6.6
509.49 K, Mass density=281.9 kg/m3	204.98 ± 6.1
509.55 K, Mass density=329.2 kg/m3	178.84 ± 5.3
509.59 K, Mass density=234.3 kg/m3	196.21 ± 5.9
509.59 K, Mass density=255.8 kg/m3	210.09 ± 6.3
509.59 K, Mass density=266.3 kg/m3	219.59 ± 6.6
509.59 K, Mass density=274 kg/m3	215.2 ± 6.5
509.59 K, Mass density=324.5 kg/m3	183.83 ± 5.5
509.64 K, Mass density=329.2 kg/m3	179.98 ± 5.4
509.68 K, Mass density=234.3 kg/m3	196.87 ± 5.9
509.68 K, Mass density=255.8 kg/m3	209.01 ± 6.2
509.68 K, Mass density=266.3 kg/m3	217 ± 6.5
509.68 K, Mass density=274 kg/m3	213.04 ± 6.4
509.68 K, Mass density=324.5 kg/m3	191.16 ± 5.8
509.77 K, Mass density=234.3 kg/m3	196.09 ± 5.9
509.77 K, Mass density=255.8 kg/m3	206.37 ± 6.2
509.77 K, Mass density=266.3 kg/m3	209.67 ± 6.3
509.77 K, Mass density=274 kg/m3	213.04 ± 6.4
509.77 K, Mass density=324.5 kg/m3	189.06 ± 5.6
509.79 K, Mass density=329.2 kg/m3	177.46 ± 5.3
509.86 K, Mass density=234.3 kg/m3	195.79 ± 5.9
509.86 K, Mass density=255.8 kg/m3	204.2 ± 6.1
509.86 K, Mass density=266.3 kg/m3	209.67 ± 6.3
509.86 K, Mass density=274 kg/m3	208.41 ± 6.2
509.86 K, Mass density=293.3 kg/m3	194.17 ± 5.8
509.87 K, Mass density=324.5 kg/m3	183.23 ± 5.5
509.96 K, Mass density=255.8 kg/m3	202.1 ± 6.1
509.96 K, Mass density=266.3 kg/m3	209.67 ± 6.3
509.96 K, Mass density=274 kg/m3	204.8 ± 6.1
509.96 K, Mass density=281.9 kg/m3	202.4 ± 6.1
509.96 K, Mass density=293.3 kg/m3	192.18 ± 5.8
509.96 K, Mass density=324.5 kg/m3	187.5 ± 5.6
509.99 K, Mass density=329.2 kg/m3	177.28 ± 5.3
510.05 K, Mass density=255.8 kg/m3	200 ± 6
510.05 K, Mass density=266.3 kg/m3	209.73 ± 6.3
510.05 K, Mass density=274 kg/m3	203.84 ± 6.1
510.05 K, Mass density=281.9 kg/m3	206.97 ± 6.2
510.05 K, Mass density=293.3 kg/m3	195.37 ± 5.9
510.05 K, Mass density=324.5 kg/m3	181.31 ± 5.5
510.05 K, Mass density=343.1 kg/m3	174.7 ± 5.2
510.14 K, Mass density=255.8 kg/m3	198.91 ± 5.9
510.14 K, Mass density=266.3 kg/m3	211.53 ± 6.4
510.14 K, Mass density=274 kg/m3	203.36 ± 6.1
510.14 K, Mass density=281.9 kg/m3	197.95 ± 5.9
510.14 K, Mass density=293.3 kg/m3	191.4 ± 5.8
510.14 K, Mass density=324.5 kg/m3	187.92 ± 5.6
510.14 K, Mass density=329.2 kg/m3	178.12 ± 5.3
510.14 K, Mass density=343.1 kg/m3	178.42 ± 5.3
510.23 K, Mass density=329.2 kg/m3	177.94 ± 5.3
510.24 K, Mass density=274 kg/m3	204.02 ± 6.1
510.24 K, Mass density=281.9 kg/m3	197.95 ± 5.9
510.24 K, Mass density=293.3 kg/m3	198.43 ± 5.9
510.24 K, Mass density=324.5 kg/m3	181.85 ± 5.5
510.24 K, Mass density=343.1 kg/m3	185.87 ± 5.6
510.33 K, Mass density=274 kg/m3	202.52 ± 6.1
510.33 K, Mass density=281.9 kg/m3	193.45 ± 5.8
510.33 K, Mass density=293.3 kg/m3	191.1 ± 5.8
510.33 K, Mass density=324.5 kg/m3	181.73 ± 5.5
510.33 K, Mass density=329.2 kg/m3	176.68 ± 5.3
510.33 K, Mass density=343.1 kg/m3	182.15 ± 5.5
510.42 K, Mass density=274 kg/m3	204.68 ± 6.1
510.42 K, Mass density=281.9 kg/m3	198.01 ± 5.9
510.42 K, Mass density=293.3 kg/m3	187.02 ± 5.6
510.42 K, Mass density=324.5 kg/m3	183.05 ± 5.5
510.42 K, Mass density=343.1 kg/m3	178.48 ± 5.3
510.48 K, Mass density=329.2 kg/m3	178.6 ± 5.3
510.51 K, Mass density=281.9 kg/m3	193.69 ± 5.8
510.52 K, Mass density=293.3 kg/m3	192.91 ± 5.8
510.52 K, Mass density=343.1 kg/m3	174.76 ± 5.2
510.61 K, Mass density=281.9 kg/m3	198.13 ± 5.9
510.61 K, Mass density=293.3 kg/m3	186.78 ± 5.6
510.61 K, Mass density=343.1 kg/m3	182.21 ± 5.5
510.7 K, Mass density=281.9 kg/m3	193.39 ± 5.8
510.7 K, Mass density=343.1 kg/m3	185.93 ± 5.6
510.79 K, Mass density=281.9 kg/m3	196.69 ± 5.9
510.79 K, Mass density=343.1 kg/m3	177.04 ± 5.3
510.89 K, Mass density=281.9 kg/m3	193.39 ± 5.8
510.98 K, Mass density=281.9 kg/m3	188.88 ± 5.6
511.07 K, Mass density=281.9 kg/m3	188.94 ± 5.6
511.16 K, Mass density=281.9 kg/m3	193.51 ± 5.8
511.26 K, Mass density=281.9 kg/m3	188.94 ± 5.6
511.35 K, Mass density=281.9 kg/m3	192.78 ± 5.8
511.44 K, Mass density=281.9 kg/m3	189 ± 5.6
511.53 K, Mass density=281.9 kg/m3	191.7 ± 5.8
515.15 K, Mass density=293.3 kg/m3	182.39 ± 5.5
515.24 K, Mass density=293.3 kg/m3	178.06 ± 5.3
515.33 K, Mass density=293.3 kg/m3	182.39 ± 5.5
515.42 K, Mass density=293.3 kg/m3	173.67 ± 5.2
515.51 K, Mass density=293.3 kg/m3	178.06 ± 5.3
515.61 K, Mass density=293.3 kg/m3	173.73 ± 5.2
515.7 K, Mass density=293.3 kg/m3	178.12 ± 5.3
515.79 K, Mass density=293.3 kg/m3	185.39 ± 5.6
515.88 K, Mass density=293.3 kg/m3	178.12 ± 5.3
515.98 K, Mass density=234.3 kg/m3	168.75 ± 5
515.98 K, Mass density=293.3 kg/m3	174.52 ± 5.2
516.07 K, Mass density=234.3 kg/m3	174.22 ± 5.2
516.16 K, Mass density=234.3 kg/m3	168.75 ± 5
516.25 K, Mass density=234.3 kg/m3	163.28 ± 4.9
516.34 K, Mass density=234.3 kg/m3	174.28 ± 5.2
516.44 K, Mass density=234.3 kg/m3	163.88 ± 4.9
516.53 K, Mass density=234.3 kg/m3	168.81 ± 5
516.62 K, Mass density=234.3 kg/m3	168.87 ± 5
516.71 K, Mass density=234.3 kg/m3	163.4 ± 4.9
516.71 K, Mass density=281.9 kg/m3	181.31 ± 5.5
516.81 K, Mass density=234.3 kg/m3	168.87 ± 5
516.81 K, Mass density=281.9 kg/m3	181.31 ± 5.5
516.9 K, Mass density=234.3 kg/m3	168.87 ± 5
516.9 K, Mass density=281.9 kg/m3	176.74 ± 5.3
516.99 K, Mass density=281.9 kg/m3	176.8 ± 5.3
517.08 K, Mass density=281.9 kg/m3	185.87 ± 5.6
517.18 K, Mass density=281.9 kg/m3	176.8 ± 5.3
517.27 K, Mass density=281.9 kg/m3	181.19 ± 5.5
517.54 K, Mass density=274 kg/m3	189.48 ± 5.7
517.64 K, Mass density=274 kg/m3	184.79 ± 5.5
517.73 K, Mass density=274 kg/m3	180.04 ± 5.4
517.82 K, Mass density=274 kg/m3	183.77 ± 5.5
517.91 K, Mass density=274 kg/m3	180.1 ± 5.4
518 K, Mass density=274 kg/m3	187.14 ± 5.6
518.07 K, Mass density=274 kg/m3	180.1 ± 5.4
518.1 K, Mass density=274 kg/m3	183.35 ± 5.5
518.28 K, Mass density=274 kg/m3	181.73 ± 5.5
518.37 K, Mass density=274 kg/m3	182.81 ± 5.5
518.47 K, Mass density=255.8 kg/m3	166.04 ± 5
518.56 K, Mass density=255.8 kg/m3	167.12 ± 5
518.65 K, Mass density=255.8 kg/m3	169.05 ± 5.1
518.74 K, Mass density=255.8 kg/m3	166.34 ± 5
518.83 K, Mass density=255.8 kg/m3	165.14 ± 5
518.93 K, Mass density=255.8 kg/m3	167.97 ± 5
519.02 K, Mass density=255.8 kg/m3	165.14 ± 5
519.11 K, Mass density=255.8 kg/m3	170.19 ± 5.1
519.2 K, Mass density=255.8 kg/m3	165.2 ± 5
519.29 K, Mass density=255.8 kg/m3	166.64 ± 5
519.39 K, Mass density=255.8 kg/m3	168.99 ± 5
521.23 K, Mass density=293.3 kg/m3	170.43 ± 5.1
521.32 K, Mass density=293.3 kg/m3	170.43 ± 5.1
521.41 K, Mass density=293.3 kg/m3	170.43 ± 5.1
521.5 K, Mass density=293.3 kg/m3	161.66 ± 4.9
521.59 K, Mass density=293.3 kg/m3	174.88 ± 5.2
521.68 K, Mass density=293.3 kg/m3	170.49 ± 5.1
521.78 K, Mass density=293.3 kg/m3	166.34 ± 5
521.87 K, Mass density=281.9 kg/m3	173.13 ± 5.2
521.87 K, Mass density=293.3 kg/m3	169.71 ± 5.1
521.96 K, Mass density=281.9 kg/m3	168.57 ± 5
522.05 K, Mass density=281.9 kg/m3	173.19 ± 5.2
522.14 K, Mass density=281.9 kg/m3	173.19 ± 5.2
522.23 K, Mass density=281.9 kg/m3	173.19 ± 5.2
522.33 K, Mass density=281.9 kg/m3	168.63 ± 5
522.42 K, Mass density=281.9 kg/m3	171.63 ± 5.2
522.51 K, Mass density=281.9 kg/m3	173.25 ± 5.2
522.6 K, Mass density=281.9 kg/m3	168.69 ± 5
524.07 K, Mass density=274 kg/m3	171.75 ± 5.2
524.16 K, Mass density=274 kg/m3	171.75 ± 5.2
524.25 K, Mass density=274 kg/m3	176.5 ± 5.3
524.34 K, Mass density=274 kg/m3	176.5 ± 5.3
524.43 K, Mass density=274 kg/m3	176.56 ± 5.3
524.53 K, Mass density=274 kg/m3	171.81 ± 5.2
524.62 K, Mass density=274 kg/m3	176.56 ± 5.3
524.71 K, Mass density=274 kg/m3	167.12 ± 5
524.8 K, Mass density=274 kg/m3	171.87 ± 5.2
